Assay results published in US9861606B2, “Therapeutic for treating inflammatory lung disorders” (University College Cardiff Consultants Limited, priority 2012, dated 2018).
“And” between values parts separate entries of the source, which are not always exact repeats. Equal entries are not always repeated.

Assays:
[1] = system: Dunkin-Hartley guinea pigs; test: Inflammatory cell infiltration in BALF of LPS-treated guinea pig model of COPD; assay type: in vivo; conditions: nebulised 3 micromolar, 30 min before LPS
Description: FIG. 15. The calcilytic NPS89636 reduces inflammatory cell infiltration detected in the bronchioalveolar lavage fluid (BALF) from guinea pigs with LPS-induced COPD. Male Dunkin-Hartley guinea pigs (500-550 g) were exposed to 30 micrograms/ml of nebulized lipopolysaccharide (LPS) in saline for 1 hour on alternate days for nine exposures. Animals received nebulised 3 micromolar NPS89636 (or 0.3% DMSO vehicle) for 9 days starting after exposure 5 for 30 min, 30 min before LPS exposure every other day. Animals were killed 24 hours after the ninth exposure (1.5 mL of Euthatal IP) and BALF was collected and cells were counted the same day as described in FIG. 14. Data are presented as mean±S.E.M. Significant differences between vehicle and calcilytic are indicated, p<0.05, n=6. […] For the total cell counts 100 microliters of the concentrated BALF from OVA-sensitised mice or 100 microliters of the diluted BALF from guinea pigs were applied to the Cytospin 3 Shandon cell smearing system (using glass slides from Thermo Scientific (BS7011/2; 0.8-1 mm, 76×26 mm) and filter paper from Thermo Scientific (5991022; Shandon filter cards) at 1000 rt/min for 7 minutes. The slides then were immersed into 1.5% […] stain in methanol for 6 min, then briefly washed in water twice. The slides were allowed to dry overnight, and the cells were counted using 100× oil immersion objective.

[2] = Plasma ionised Ca2+ in BalbC mice after nebulised calcilytic treatment; assay type: in vivo, mouse
Description: Table 1. […] At the end of the experiment, bloods were collected via opening the carotid artery. Bloods were allowed to clot for 2-3 hours and spun down at 3000 g for 10 min at 4° C. Collected samples were analysed for measurements of Ca^2+o (performed by the Biochemistry department, University Hospital of Wales). […] Accordingly, the treatment is not detrimental in mammals.

[3] = Plasma ionised Ca2+ in guinea pigs after nebulised calcilytic treatment; assay type: in vivo, guinea pig
Excerpt: Table 2. […] Accordingly, the treatment is not detrimental in mammals.

[4] = 24 hours after nebulised calcilytic, single animals, hydrochloride

Structure (SMILES): CCc1ccc(CC(C)(C)NCC(O)COc2cc(-c3ccc(C(=O)O)cc3)ccc2C#N)c(F)c1.Cl (stereo in doubt) [NPS89636, (S)-4′-cyano-3′-[3-[2-(4-ethyl-2-fluorophenyl)-1,1-dimethylethylamino]-2-hydroxy-propoxy]-biphenyl-4-carboxylic acid hydrochloride]
- Effect on inflammatory cell infiltration (BALF), LPS-treated guinea pig [1]: a reduction in the inflammatory cell infiltration, especially of lymphocytes and neutrophils
- Plasma ionised Ca++, Treatment (1 hour), individual animal ([2]; 1 hour after nebulised calcilytic, single animals, hydrochloride): 0.69 mM/L and 0.88 mM/L and 0.95 mM/L
- Plasma ionised Ca++, Treatment (1 hour), Average ([2]; 1 hour, average of 3): 0.84 mM/L
- Plasma ionised Ca++, Treatment (4 hours), individual animal ([2]; 4 hours after nebulised calcilytic, single animals, hydrochloride): 0.98 mM/L and 0.94 mM/L and 0.96 mM/L
- Plasma ionised Ca++, Treatment (4 hours), Average ([2]; 4 hours, average of 3): 0.96 mM/L
- Plasma ionised Ca++, Treatment (24 hours), individual animal [2, 4]: 1.09 mM/L and 1.1 mM/L and 0.93 mM/L
- Plasma ionised Ca++, Treatment (24 hours), Average ([2]; 24 hours, average of 3): 1.04 mM/L
- Plasma ionised Ca++, Treatment (24 hours), individual animal [3, 4]: 1.55 mM/L (2×) and 1.54 mM/L and 1.77 mM/L and 1.58 mM/L and 1.2 mM/L
- Plasma ionised Ca++, Treatment (24 hours), Average ([3]; 24 hours, average of 6): 1.53 mM/L
